# In publication PMC3544981 (Pharmacology, biochemistry, and behavior, 2012):
# Values joined by “and” are separate entries in the source; they are usually repeats but may differ in a detail not shown here. Identical values can stand only once. Like-named read-outs stand apart in the source and are kept apart here.
# How the values were obtained:
# [1] = molecular target: α6β2*-nAChR (Mus musculus, UniProt Q9ERK7+Q9R0W9, V287L); settings: striatum, MT mice
# [2] = molecular target: α6β2*-nAChR (Mus musculus, UniProt Q9ERK7+Q9R0W9)
# [3] = molecular target: T1, α4β2*-nAChRs (Mus musculus, UniProt O70174+Q9ERK7); type: biochemical
# [4] = molecular target: T2, α4β2*-nAChRs (Mus musculus, UniProt O70174+Q9ERK7, V287L); type: biochemical
# T2 sequence (O70174 31-629): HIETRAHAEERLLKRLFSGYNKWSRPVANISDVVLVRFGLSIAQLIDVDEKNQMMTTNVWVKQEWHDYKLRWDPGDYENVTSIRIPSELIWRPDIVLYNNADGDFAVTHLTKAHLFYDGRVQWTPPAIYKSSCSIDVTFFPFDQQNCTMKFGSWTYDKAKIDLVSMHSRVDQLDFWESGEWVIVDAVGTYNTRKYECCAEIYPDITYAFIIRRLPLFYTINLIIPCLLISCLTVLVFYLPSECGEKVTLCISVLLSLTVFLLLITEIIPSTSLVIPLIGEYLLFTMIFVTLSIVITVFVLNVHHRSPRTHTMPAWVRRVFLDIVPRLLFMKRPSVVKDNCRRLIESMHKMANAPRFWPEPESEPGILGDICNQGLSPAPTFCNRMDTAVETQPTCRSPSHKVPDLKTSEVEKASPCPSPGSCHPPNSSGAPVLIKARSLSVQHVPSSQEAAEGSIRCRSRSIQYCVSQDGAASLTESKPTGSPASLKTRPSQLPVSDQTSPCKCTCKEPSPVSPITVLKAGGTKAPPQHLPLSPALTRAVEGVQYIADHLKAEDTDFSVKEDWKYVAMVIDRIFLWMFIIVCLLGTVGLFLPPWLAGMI
# T2 sequence (Q9ERK7 26-501 V287L): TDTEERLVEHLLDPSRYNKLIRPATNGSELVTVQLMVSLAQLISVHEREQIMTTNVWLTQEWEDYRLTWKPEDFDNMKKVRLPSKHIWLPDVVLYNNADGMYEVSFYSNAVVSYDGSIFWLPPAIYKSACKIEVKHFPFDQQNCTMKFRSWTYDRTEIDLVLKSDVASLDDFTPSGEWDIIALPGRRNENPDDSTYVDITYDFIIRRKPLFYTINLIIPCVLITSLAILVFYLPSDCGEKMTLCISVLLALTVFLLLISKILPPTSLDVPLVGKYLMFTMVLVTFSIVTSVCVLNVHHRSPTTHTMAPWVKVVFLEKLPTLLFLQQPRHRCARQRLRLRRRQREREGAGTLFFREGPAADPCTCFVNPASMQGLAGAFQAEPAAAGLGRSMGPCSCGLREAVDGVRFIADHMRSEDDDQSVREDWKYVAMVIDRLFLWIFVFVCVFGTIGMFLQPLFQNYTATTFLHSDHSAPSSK
# [5] = test system: α4S248F mutation; settings: 2007, cited from earlier work
# [6] = molecular target: T1, α4β2*-nAChRs
# [7] = molecular target: T2, α4β2*-nAChRs
# [8] = molecular target: α4β2*-nAChR (Mus musculus, UniProt O70174+Q9ERK7); type: biochemical
# Chain of α4β2*-nAChR (O70174 31-629): as the sequence (O70174 31-629) above
# Chain of α4β2*-nAChR (Q9ERK7 26-501): as the sequence (Q9ERK7 26-501 V287L) above, with L262V counted along it
# [9] = molecular target: T3, α4β2*-nAChR binding sites (Mus musculus, UniProt O70174+Q9ERK7, V287L); assay: [125I]-Epibatidine binding to membrane fragments, thalamus; settings: read-out: Kd for [125I]-epibatidine, MT mice
# T3 sequence (O70174 31-629): as the sequence (O70174 31-629) above
# T3 sequence (Q9ERK7 26-501 V287L): as the sequence (Q9ERK7 26-501 V287L) above
# [10] = molecular target: α4β2*-nAChR binding sites; assay: as above; parameters: species or system mouse; settings: read-out: Kd for [125I]-epibatidine, HT mice
# [11] = molecular target: T4, α4β2*-nAChR binding sites (Mus musculus, UniProt O70174+Q9ERK7); assay: as above; settings: read-out: Kd for [125I]-epibatidine, WT mice
# T4 sequence (Q9ERK7 26-501): as the sequence (Q9ERK7 26-501 V287L) above, with L262V counted along it
# T4 sequence (O70174 31-629): as the sequence (O70174 31-629) above
# [12] = molecular target: T3, α4β2*-nAChR binding sites; assay: [125I]-Epibatidine binding to membrane fragments, cortex; settings: read-out: Kd for [125I]-epibatidine, MT mice
# [13] = molecular target: α4β2*-nAChR binding sites; assay: as above; parameters: species or system mouse; settings: read-out: Kd for [125I]-epibatidine, HT mice
# [14] = molecular target: T4, α4β2*-nAChR binding sites; assay: as above; settings: read-out: Kd for [125I]-epibatidine, WT mice
# [15] = test system: β2VL mice; settings: male, mouse, in vivo, ip, 2 mg/kg
# [16] = test system: β2VL mice; settings: mouse, in vivo, ip, 5 mg/kg
# [17] = β2VL knock-in, homozygous mutant (MT)
# Chain of α6β2*-nAChR (Mus musculus, UniProt Q9ERK7+Q9R0W9, V287L) (Q9R0W9 31-494): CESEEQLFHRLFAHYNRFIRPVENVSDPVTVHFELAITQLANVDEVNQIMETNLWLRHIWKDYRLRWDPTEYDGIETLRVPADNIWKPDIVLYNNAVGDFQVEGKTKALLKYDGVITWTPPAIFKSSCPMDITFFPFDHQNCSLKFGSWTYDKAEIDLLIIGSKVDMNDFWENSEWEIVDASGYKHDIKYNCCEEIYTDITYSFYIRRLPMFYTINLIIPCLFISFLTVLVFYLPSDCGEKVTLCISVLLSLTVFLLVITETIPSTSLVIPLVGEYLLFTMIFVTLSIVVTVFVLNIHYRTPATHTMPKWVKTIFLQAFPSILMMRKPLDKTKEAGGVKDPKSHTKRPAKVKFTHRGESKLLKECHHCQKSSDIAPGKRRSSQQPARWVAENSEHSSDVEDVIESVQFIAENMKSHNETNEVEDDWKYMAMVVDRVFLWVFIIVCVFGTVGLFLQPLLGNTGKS
# Chain of α6β2*-nAChR (Mus musculus, UniProt Q9ERK7+Q9R0W9, V287L) (Q9ERK7 26-501 V287L): as the sequence (Q9ERK7 26-501 V287L) above
compound,measurement,setting,value
"CC(=O)OCC[N+](C)(C)C [ACh, acetylcholine iodide]",α-CtxMII-sensitive maximal [3H]-dopamine release,[1],3.73±0.29
same,decrease in the α-CtxMII sensitive [3H]-dopamine release,[2],23%
same,α-CtxMII-sensitive maximal [3H]-dopamine release,[2],3.31±0.30
same,α-CtxMII-sensitive maximal [3H]-dopamine release,"[2]; striatum, WT mice",4.82±0.30
same,maximum ACh-stimulated [3H]-GABA release,[3],3.31±0.24 and 3.69±0.19
same,reduction in maximal ACh-stimulated [3H]-GABA release,[3],20%
same,maximum ACh-stimulated [3H]-GABA release,[4],2.64±0.13
same,decrease in maximal ACh-stimulated [3H]-GABA release,[5]; α4S248F HT mice ref Teper et al.,60%
same,decrease in maximal ACh-stimulated [3H]-GABA release,[5]; α4S248F MT mice ref Teper et al.,80%
same,"decrease in EC50, ACh-stimulated [3H]-GABA release",[6],approximately 10 fold
same,maximum ACh-stimulated [3H]-GABA release,[6],1.96±0.17 and 2.25±0.16
same,reduction in maximal ACh-stimulated [3H]-GABA release,[6],0%
same,maximum ACh-stimulated [3H]-GABA release,[7],2.11±0.14
same,control ACh-stimulated 86Rb+ efflux,[8],5.64±1.43 and 3.35±0.47
Ic1ccc(C2CC3CCC2N3)cn1 (stereo not shown) [[^125I]-epibatidine],Kd,[9],0.11 ± 0.03 nM
same,Kd,[10],0.08 ± 0.01 nM
same,Kd,[11],0.15 ± 0.06 nM
same,Kd,[12],0.13 ± 0.02 nM
same,Kd,[13],0.12 ± 0.02 nM
same,Kd,[14],0.15 ± 0.03 nM
CN1CCC[C@H]1c1cccnc1 [nicotine],mice displaying diagonal retrograde tail,[15],2/19
same,mice displaying tonic forelimb digit splaying,[15],1/19
same,mice displaying tonic forelimb extension,[15],1/19
same,mice exhibiting forelimb clonus,[15],0/19
same,post-injection latency for onset of diagonal retrograde tail,[15],31 ± 8 s
same,mice displaying diagonal retrograde tail,[15]; [17],19/19
same,mice displaying tonic forelimb digit splaying,[15]; [17],16/19
same,mice displaying tonic forelimb extension,[15]; [17],18/19
same,mice exhibiting forelimb clonus,[15]; [17],12/19
same,post-injection latency for onset of forelimb clonus,[15]; [17],59 ± 7 s
same,post-injection latency for onset of tonic digit splaying,[15]; [17],59 ± 6 s
same,post-injection latency for onset of tonic forelimb extension,[15]; [17],57 ± 5 s
same,interval from DAC to spike-wave seizure with tonic-clonic convulsions,[16],2 to 3 min
same,time to tonic-clonic convulsion with EEG spike-wave discharges post-injection,[16],3~4 min
